Reference: patent US10233188B2, “CDK2/4/6 inhibitors” (priority 2016, dated 2019)

How the values were obtained:
CDK2/Cyclin E1 = CDK2/Cyclin E1 (Homo sapiens (Human), UniProt P24941); assay: biochemical; settings: CDK2_Ki (nM), phosphorylated CDK2/Cyclin E1, 150 μM ATP, Morrison tight-binding fit
Protocol: The assay was initiated with the addition of ATP, following a fifteen minutes pre-incubation of enzyme and inhibitor at room temperature in the reaction mixture. The reaction was stopped after 45 minutes at room temperature by the addition of 50 μL of 80 mM EDTA, pH 7.5.

CDK6/Cyclin D1 = CDK6/Cyclin D1 (Homo sapiens (Human), UniProt Q00534); assay: biochemical; settings: CDK6_Ki (nM), non-phosphorylated CDK6/Cyclin D1, 2 mM ATP, Morrison fit
CDK6/Cyclin D1, sequence (Q00534 whole entry): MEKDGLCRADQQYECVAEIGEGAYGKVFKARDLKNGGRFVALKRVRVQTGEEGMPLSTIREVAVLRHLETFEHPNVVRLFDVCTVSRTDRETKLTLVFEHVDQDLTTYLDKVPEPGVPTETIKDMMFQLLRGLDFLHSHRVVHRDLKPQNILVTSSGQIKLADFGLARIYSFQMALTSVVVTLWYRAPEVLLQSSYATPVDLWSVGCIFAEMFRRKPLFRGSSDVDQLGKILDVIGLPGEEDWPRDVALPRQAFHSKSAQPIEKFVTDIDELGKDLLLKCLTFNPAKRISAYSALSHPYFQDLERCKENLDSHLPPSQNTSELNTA
CDK6/Cyclin D1, sequence (P24385 whole entry partner): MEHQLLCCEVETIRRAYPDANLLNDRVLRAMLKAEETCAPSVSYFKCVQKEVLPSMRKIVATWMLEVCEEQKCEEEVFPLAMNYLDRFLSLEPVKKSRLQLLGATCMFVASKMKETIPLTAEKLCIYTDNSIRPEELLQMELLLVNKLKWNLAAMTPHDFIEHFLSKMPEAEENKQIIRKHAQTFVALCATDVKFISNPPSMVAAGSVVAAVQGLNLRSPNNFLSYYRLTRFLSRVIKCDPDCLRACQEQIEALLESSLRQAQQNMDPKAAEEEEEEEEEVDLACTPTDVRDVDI

| Ki (CDK2/Cyclin E1) | Ki (CDK6/Cyclin D1) | Structure (SMILES) |
| --- | --- | --- |
| 1.74 nM | 2.46 nM | Cc1cc2cnc(NC3CCN(S(=O)(=O)CC4CC4)CC3)nc2n([C@H]2CCC[C@]2(C)O)c1=O (single isomer, unassigned) [Example 117, (+)-2-({1-[(cyclopropylmethyl)sulfonyl]piperidin-4-yl}amino)-8-[(1R*,2R*)-2-hydroxy-2-methylcyclopentyl]-6-methylpyrido[2,3-d]pyrimidin-7(8H)-one] |
| 0.46 nM | 0.76 nM | COCCS(=O)(=O)N1CCC(Nc2ncc3ccc(=O)n(C4CCCC4)c3n2)CC1 [Example 15, 8-cyclopentyl-2-({1-[(2-methoxyethyl)sulfonyl]piperidin-4-yl}amino)pyrido[2,3-d]pyrimidin-7(8H)-one] |
| 0.4 nM | 0.58 nM | C[C@@]1(O)CCC[C@H]1n1c(=O)c(Cl)cc2cnc(N[C@H]3CCN(S(C)(=O)=O)C[C@H]3F)nc21 (single isomer, unassigned) [Example 191, (−)-6-chloro-2-{[(3R*,4S*)-3-fluoro-1-(methylsulfonyl)piperidin-4-yl]amino}-8-[(1R,2R)-2-hydroxy-2-methylcyclopentyl]pyrido[2,3-d]pyrimidin-7(8H)-one] |
| 4.38 nM | 8.23 nM | C[C@]1(O)CCC[C@@H]1n1c(=O)ccc2cnc(NC3CCN(S(=O)(=O)CC(F)(F)F)CC3)nc21 (single isomer, unassigned) [Example 87, (+)-8-[(1R*,2R*)-2-hydroxy-2-methylcyclopentyl]-2-({1-[(2,2,2-trifluoroethyl)sulfonyl]piperidin-4-yl}amino)pyrido[2,3-d]pyrimidin-7(8H)-one] |
| 0.57 nM | 0.37 nM | C[C@@]1(O)CCC[C@H]1n1c(=O)c(C(F)(F)F)cc2cnc(NC3CCN(S(C)(=O)=O)CC3)nc21 [Example 132, 8-[(1R,2R)-2-hydroxy-2-methylcyclopentyl]-2-{[1-(methylsulfonyl)piperidin-4-yl]amino}-6-(trifluoromethyl)pyrido[2,3-d]pyrimidin-7(8H)-one] |
| 0.25 nM | 0.88 nM | C[C@@]1(O)CCC[C@H]1n1c(=O)ccc2cnc(NC3CCN(S(=O)(=O)CC4CC4)CC3)nc21 (single isomer, unassigned) [Example 90, (−)-2-({1-[(cyclopropylmethyl)sulfonyl]piperidin-4-yl}amino)-8-[(1R*,2R*)-2-hydroxy-2-methylcyclopentyl]pyrido[2,3-d]pyrimidin-7(8H)-one] |
| 7.46 nM | 18.3 nM | CNS(=O)(=O)N1CCC(Nc2ncc3ccc(=O)n([C@@H]4C[C@@H](O)CC[C@H]4F)c3n2)CC1 (single isomer, unassigned) [Example 220, (−)-4-({8-[(1S*,2S*,5R*)-2-fluoro-5-hydroxycyclohexyl]-7-oxo-7,8-dihydropyrido[2,3-d]pyrimidin-2-yl}amino)-N-methylpiperidine-1-sulfonamide] |
| 3.85 nM | 4.96 nM | C[C@]1(O)CCC[C@@H]1n1c(=O)ccc2cnc(NC3CCN(S(=O)(=O)C4CC4)CC3)nc21 (single isomer, unassigned) [Example 75, (+)-2-{[1-(cyclopropylsulfonyl)piperidin-4-yl]amino}-8-[(1R*,2R*)-2-hydroxy-2-methylcyclopentyl]pyrido[2,3-d]pyrimidin-7(8H)-one] |
| 1.79 nM | 2.33 nM | CC(C)(O)CS(=O)(=O)N1CCC(Nc2ncc3ccc(=O)n(C4CCCC4)c3n2)CC1 [Example 17, 8-cyclopentyl-2-({1-[(2-hydroxy-2-methylpropyl)sulfonyl]piperidin-4-yl}amino)pyrido[2,3-d]pyrimidin-7(8H)-one] |
| 0.27 nM | 0.49 nM | C[C@@]1(O)CCC[C@H]1n1c(=O)ccc2cnc(NC3CCN(S(=O)(=O)CF)CC3)nc21 (single isomer, unassigned) [Example 58, (−)-2-({1-[(fluoromethyl)sulfonyl]piperidin-4-yl}amino)-8-[(1R*,2R*)-2-hydroxy-2-methylcyclopentyl]pyrido[2,3-d]pyrimidin-7(8H)-one] |
| 24.9 nM | 12 nM | Cc1cc2cnc(NC3CCN(S(C)(=O)=O)CC3)nc2n(C2CCCCC(O)C2)c1=O (single isomer, unassigned; isomer b) [Example 224, 8-(3-hydroxycycloheptyl)-6-methyl-2-{[1-(methylsulfonyl)piperidin-4-yl]amino}pyrido[2,3-d]pyrimidin-7(8H)-one-Isomer B] |
| 3.46 nM | 12.6 nM | CNS(=O)(=O)N1CCC(Nc2ncc3cc(Cl)c(=O)n([C@H]4CCC[C@]4(C)O)c3n2)CC1 (single isomer, unassigned) [Example 127, (+)-4-({6-chloro-8-[(1R*,2R*)-2-hydroxy-2-methylcyclopentyl]-7-oxo-7,8-dihydropyrido[2,3-d]pyrimidin-2-yl}amino)-N-methylpiperidine-1-sulfonamide] |
| 0.12 nM | 0.53 nM | C[C@@]1(O)CCC[C@H]1n1c(=O)c(Cl)cc2cnc(NC3CCN(S(N)(=O)=O)CC3)nc21 (single isomer, unassigned) [Example 128, (−)-4-({6-chloro-8-[(1R*,2R*)-2-hydroxy-2-methylcyclopentyl]-7-oxo-7,8-dihydropyrido[2,3-d]pyrimidin-2-yl}amino)piperidine-1-sulfonamide] |
| 0.15 nM | 0.21 nM | Cc1cc2cnc(NC3CCN(S(=O)(=O)CC4CC4)CC3)nc2n([C@@H]2CCC[C@@]2(C)O)c1=O (single isomer, unassigned) [Example 116, (−)-2-({1-[(cyclopropylmethyl)sulfonyl]piperidin-4-yl}amino)-8-[(1R*,2R*)-2-hydroxy-2-methylcyclopentyl]-6-methylpyrido[2,3-d]pyrimidin-7(8H)-one] |
| 0.43 nM | 0.38 nM | C[C@@]1(O)CCC[C@H]1n1c(=O)c(CO)cc2cnc(NC3CCN(S(C)(=O)=O)CC3)nc21 (single isomer, unassigned) [Example 185, (−)-6-(hydroxymethyl)-8-[(1R*,2R*)-2-hydroxy-2-methylcyclopentyl]-2-{[1-(methylsulfonyl)piperidin-4-yl]amino}pyrido[2,3-d]pyrimidin-7(8H)-one] |
| 4.75 nM | 13.1 nM | C[C@@]1(O)CCC[C@H]1n1c(=O)c(F)cc2cnc(NC3CCN(S(C)(=O)=O)CC3)nc21 (single isomer, unassigned) [Example 5, (+)-6-fluoro-8-[(1R*,2R*)-2-hydroxy-2-methylcyclopentyl]-2-{[1-(methylsulfonyl)piperidin-4-yl]amino}pyrido[2,3-d]pyrimidin-7(8H)-one] |
| 3.76 nM | 28.9 nM | C[C@]1(O)CCC[C@@H]1n1c(=O)c(CC(N)=O)cc2cnc(NC3CCN(S(C)(=O)=O)CC3)nc21 (single isomer, unassigned) [Example 180, (+)-2-(8-[(1R*,2R*)-2-hydroxy-2-methylcyclopentyl]-2-{[1-(methylsulfonyl)piperidin-4-yl]amino}-7-oxo-7,8-dihydropyrido[2,3-d]pyrimidin-6-yl)acetamide] |
| 1.98 nM | 8.29 nM | Cn1cnc(S(=O)(=O)N2CCC(Nc3ncc4ccc(=O)n([C@H]5CCC[C@]5(C)O)c4n3)CC2)c1 (single isomer, unassigned) [Example 85, (+)-8-[(1R*,2R*)-2-hydroxy-2-methylcyclopentyl]-2-({1-[(1-methyl-1H-imidazol-4-yl)sulfonyl]piperidin-4-yl}amino)pyrido[2,3-d]pyrimidin-7(8H)-one] |
| 57.1 nM | 21 nM | Cc1cc2cnc(NC3CCN(S(C)(=O)=O)CC3)nc2n(C2CCCCC(O)C2)c1=O (single isomer, unassigned; isomer a) [Example 223, 8-(3-hydroxycycloheptyl)-6-methyl-2-{[1-(methylsulfonyl)piperidin-4-yl]amino}pyrido[2,3-d]pyrimidin-7(8H)-one-Isomer A] |
| 1.88 nM | 0.55 nM | COCc1cc2cnc(NC3CCN(S(C)(=O)=O)CC3)nc2n(C2CCCC2)c1=O [Example 142, 8-cyclopentyl-6-(methoxymethyl)-2-{[1-(methylsulfonyl)piperidin-4-yl]amino}pyrido[2,3-d]pyrimidin-7(8H)-one] |
| 0.16 nM | 0.11 nM | Cc1cc2cnc(NC3CCN(S(=O)(=O)C4CCS(=O)(=O)C4)CC3)nc2n([C@@H]2CCC[C@@]2(C)O)c1=O (single isomer, unassigned; isomer a) [Example 106, (−)-2-[(1-{[(3ξ)-1,1-dioxidotetrahydrothiophen-3-yl]sulfonyl}piperidin-4-yl)amino]-8-[(1R*,2R*)-2-hydroxy-2-methylcyclopentyl]-6-methylpyrido[2,3-d]pyrimidin-7(8H)-one-Isomer A] |
| 5.72 nM | 3.84 nM | CC[C@]1(O)CCC[C@@H]1n1c(=O)c(Cl)cc2cnc(NC3CCN(S(C)(=O)=O)CC3)nc21 (single isomer, unassigned) [Example 196, (+)-6-chloro-8-[(1R*,2R*)-2-ethyl-2-hydroxycyclopentyl]-2-{[1-(methylsulfonyl)piperidin-4-yl]amino}pyrido[2,3-d]pyrimidin-7(8H)-one] |
| 4.05 nM | 21.6 nM | CC(F)(F)CNS(=O)(=O)N1CCC(Nc2ncc3ccc(=O)n([C@H]4CCC[C@]4(C)O)c3n2)CC1 (single isomer, unassigned) [Example 67, (+)-N-(2,2-difluoropropyl)-4-({8-[(1R*,2R*)-2-hydroxy-2-methylcyclopentyl]-7-oxo-7,8-dihydropyrido[2,3-d]pyrimidin-2-yl}amino)piperidine-1-sulfonamide] |

| Structure (SMILES) | Ki (CDK2/Cyclin E1) | Ki (CDK6/Cyclin D1) |
| --- | --- | --- |
| C#CCCS(=O)(=O)N1CCC(Nc2ncc3cc(N)c(=O)n(C4CCCC4)c3n2)CC1 [Example 137, 6-amino-2-{[1-(but-3-yn-1-ylsulfonyl)piperidin-4-yl]amino}-8-cyclopentylpyrido[2,3-d]pyrimidin-7(8H)-one] | 4.08 nM | 6.3 nM |
